According to patent US8066980B2, “Osteogenic synthetic peptides, pharmaceutical compositions comprising the same, and medium containing the same” (Industry Foundation of Chonnam National University, priority 2008, dated 2011):
Where a SMILES comes first, the peptide text is derived from it.

Experiments:
cells = experiment: MTT assay for cytotoxicity; format: cell-based; conditions: within a range of used concentrations
surface marker CD44 = experiment: Fluorescence microscopy of surface marker CD44; format: cell-based, mouse; conditions: at the same concentrations
Description: The effects of BFP 1 and BFP 2 on the expression of the surface marker CD44 were observed under a fluorescence microscope and the results are given in FIGS. 10a and 10b.
During differentiation, the cells were stained with DAPI, a fluorescent stain that easily binds to the DNA of living cells, and with a PE(phycoerythrin)-conjugated-CD44 antibody.

Row | Molecule | cytotoxicity (MTT assay) (cells) | CD44 staining intensity compared with BFP 1 or BFP 2 (surface marker CD44)
1 | CC(C)[C@H](NC(=O)[C@H](C)NC(=O)[C@H](CCCCN)NC(=O)[C@H](Cc1ccc(O)cc1)NC(=O)[C@@H]1CCCN1C(=O)[C@H](Cc1ccc(O)cc1)NC(=O)[C@H](CO)NC(=O)[C@H](Cc1ccccc1)NC(=O)CNC(=O)[C@H](CCC(N)=O)NC(=O)CN)C(=O)N[C@@H](Cc1ccccc1)C(=O)N[C@@H](CO)C(=O)N[C@H](C(=O)N[C@@H](CCC(N)=O)C(=O)O)[C@@H](C)O [BFP 1, Gly-Gln-Gly-Phe-Ser-Tyr-Pro-Tyr-Lys-Ala-Val-Phe-Ser-Thr-Gln] (H-GQGFSYPYKAVFSTQ-OH) | neither BFP 1 nor BFP 2 are toxic to cells | 
2 | CC(C)[C@H](N)C(=O)N[C@@H](CCC(=O)O)C(=O)N[C@@H](Cc1c[nH]cn1)C(=O)N[C@@H](CC(=O)O)C(=O)N[C@@H](CCCCN)C(=O)N[C@@H](CCC(=O)O)C(=O)N[C@@H](Cc1ccccc1)C(=O)N[C@@H](Cc1ccccc1)C(=O)N[C@@H](Cc1c[nH]cn1)C(=O)N1CCC[C@H]1C(=O)N[C@@H](CCCNC(=N)N)C(=O)N[C@@H](Cc1ccc(O)cc1)C(=O)N[C@@H](Cc1c[nH]cn1)C(=O)N[C@@H](Cc1c[nH]cn1)C(=O)N[C@@H](CCCNC(=N)N)C(=O)O [BFP 2, Val-Glu-His-Asp-Lys-Glu-Phe-Phe-His-Pro-Arg-Tyr-His-His-Arg] (H-VEHDKEFFHPRYHHR-OH) | neither BFP 1 nor BFP 2 are toxic to cells | 
3 | BMP-7: bone morphogenetic protein-7, known as an osteogenesis promoter; comparator (protein, UniProt P18075 293-431, looked up) Bone morphogenetic protein 7: STGSKQRSQNRSKTPKNQEALRMANVAENSSSDQRQACKKHELYVSFRDLGWQDWIIAPEGYAAYYCEGECAFPLNSYMNATNHAIVQTLVHFINPETVPKPCCAPTQLNAISVLYFDDSSNVILKKYRNMVVRACGCH |  | less intense staining
